The record followed here is BindingDB's records for patent US12202839 (University of Virginia Patent Foundation, 2025).

The target in the experiment is Protein tyrosine phosphatase type IVA 3 (Homo sapiens, UniProt O75365). The experiment in a line: PTP4A3 Enzymatic Assay.
Chain of Protein tyrosine phosphatase type IVA 3 (O75365 whole entry): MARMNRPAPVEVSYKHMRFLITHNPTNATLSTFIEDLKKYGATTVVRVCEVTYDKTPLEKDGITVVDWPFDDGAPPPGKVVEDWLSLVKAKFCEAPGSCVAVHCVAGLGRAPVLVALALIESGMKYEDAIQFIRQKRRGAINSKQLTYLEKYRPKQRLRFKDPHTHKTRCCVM

Regarding `O=C1NC(=O)c2sc(-c3ccccc3)cc2C1=O` [US12202839, Compound 15], the midpoint of inhibition, the IC50, lay at 162 nM.

As a reminder, the IC50 is the concentration that gives 50% inhibition. Low values mean greater potency, high ones weaker potency.
